The values that follow are results of earlier work, collected in patent US6436991B1, “Composition and method containing products extracted from Commiphora sp. for prevention and treatment of abnormal cell growth and proliferation in inflammation, neoplasia and cardiovascular disease” (Sabinsa Corporation, priority 2000, dated 2002).

For the series the following is noted: literature values; read-out: IC50, DPPH radical scavenging (reported, Chen and Ho 1995).

As usually defined, the IC50 is the midpoint of a concentration-inhibition curve. As to catechin, the IC50 was 18.6 µM.

As to `O=C(O)c1cc(O)c(O)c(O)c1` [gallic acid], the IC50 is 10.6 µM.
